Results from ChEMBL document CHEMBL1201862, “PubChem BioAssay data set” (2004).
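Five compound concentrations were applied to cells in 96-well plates for 48 hours; endpoints were derived by simple linear interpolation of the resulting dose-response curve. GI50 marks 50% less growth.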 The source made the active and inactive calls. Rule as the data show it: active = GI50 up to about 1.1 µM and inactive = higher.

Legend:
Assay in all cases: NCI anticancer screen, dose series, 48 h
786-0 = test system: 786-0
A498 = test system: A498
A549 = test system: A549
ACHN = test system: ACHN
CAKI-1 = test system: CAKI-1
CCRF-CEM = test system: CCRF-CEM
COLO 205 = test system: COLO 205
DLD-1 = test system: DLD-1
DMS-114 = test system: DMS-114
DMS-273 = test system: DMS-273
EKVX = test system: EKVX
HCT-116 = test system: HCT-116
HCT-15 = test system: HCT-15
HL-60 = test system: HL-60
HOP-62 = test system: HOP-62
HOP-92 = test system: HOP-92
HT-29 = test system: HT-29
IGROV-1 = test system: IGROV-1
K562 = test system: K562
KM-20L2 = test system: KM-20L2
KM12 = test system: KM12
LXFL 529 = test system: LXFL 529
M14 = test system: M14
M19-MEL = test system: M19-MEL
MOLT-4 = test system: MOLT-4
Malme-3M = test system: Malme-3M
NCI-H226 = test system: NCI-H226
NCI-H23 = test system: NCI-H23
NCI-H460 = test system: NCI-H460
NCI-H522 = test system: NCI-H522
OVCAR-3 = test system: OVCAR-3
OVCAR-4 = test system: OVCAR-4
OVCAR-5 = test system: OVCAR-5
OVCAR-8 = test system: OVCAR-8
RPMI-8226 = test system: RPMI-8226
RXF 393 = test system: RXF 393
SF-268 = test system: SF-268
SF-295 = test system: SF-295
SF-539 = test system: SF-539
SK-MEL-28 = test system: SK-MEL-28
SK-MEL-2 = test system: SK-MEL-2
SK-OV-3 = test system: SK-OV-3
SN12C = test system: SN12C
SNB-19 = test system: SNB-19
SNB-75 = test system: SNB-75
SNB-78 = test system: SNB-78
SR = test system: SR
SW-620 = test system: SW-620
TK-10 = test system: TK-10
U-251 = test system: U-251
UACC-257 = test system: UACC-257
UACC-62 = test system: UACC-62
UO-31 = test system: UO-31
HCC 2998 = test system: HCC 2998
HOP-18 = test system: HOP-18
LOX IMVI = test system: LOX IMVI
SK-MEL-5 = test system: SK-MEL-5

In the case of `COc1ccc(C(=O)C(c2ccc(OC)cc2)C2(O)C(=O)Nc3ccc([N+](=O)[O-])cc32)cc1` (stereo not drawn), the GI50 (786-0) is reported as > 100 µM (inactive), the GI50 (A498) is reported as 17.7 µM (inactive) and the GI50 (A549) is reported as > 100 µM (inactive). For the same compound, the GI50 (ACHN) was > 100 µM (inactive), the GI50 (CAKI-1) was > 100 µM (inactive) and the GI50 (CCRF-CEM) was > 100 µM (inactive). The GI50 (COLO 205) was > 100 µM (inactive), the GI50 (DLD-1) was > 100 µM (inactive) and the GI50 (DMS-114) was 48.8 µM (inactive). The GI50 (DMS-273) was > 100 µM (inactive), the GI50 (EKVX) was > 100 µM (inactive) and the GI50 (HCT-116) was > 100 µM (inactive). The GI50 (HCT-15) was greater than 100 µM, the GI50 (HL-60) was 70.8 µM (inactive) and the GI50 (HOP-62) was > 100 µM (inactive). For the same compound, the GI50 (HOP-92) was 32.9 µM (inactive), the GI50 (HT-29) was > 100 µM (inactive) and the GI50 (IGROV-1) was > 100 µM (inactive). The GI50 (K562) was > 100 µM (inactive), the GI50 (KM-20L2) was > 100 µM (inactive) and the GI50 (KM12) was > 100 µM (inactive). For the same compound, the GI50 (LXFL 529) was > 100 µM (inactive), the GI50 (M14) was > 100 µM (inactive) and the GI50 (M19-MEL) was > 100 µM (inactive). The GI50 (MOLT-4) was > 100 µM (inactive), the GI50 (Malme-3M) was > 100 µM (inactive) and the GI50 (NCI-H226) was > 100 µM (inactive). For the same compound, the GI50 (NCI-H23) was > 100 µM (inactive), the GI50 (NCI-H460) was > 100 µM (inactive) and the GI50 (NCI-H522) was > 100 µM (inactive). For the same compound, the GI50 (OVCAR-3) was > 100 µM (inactive), the GI50 (OVCAR-4) was > 100 µM (inactive) and the GI50 (OVCAR-5) was > 100 µM (inactive). The GI50 (OVCAR-8) was > 100 µM (inactive), the GI50 (RPMI-8226) was > 100 µM (inactive) and the GI50 (RXF 393) was > 100 µM (inactive). The GI50 (SF-268) was > 100 µM (inactive), the GI50 (SF-295) was > 100 µM (inactive) and the GI50 (SF-539) was 11.3 µM (inactive). For the same compound, the GI50 (SK-MEL-28) was > 100 µM (inactive), the GI50 (SK-MEL-2) was > 100 µM (inactive) and the GI50 (SK-OV-3) was > 100 µM (inactive). The GI50 (SN12C) was 12.1 µM (inactive), the GI50 (SNB-19) was > 100 µM (inactive) and the GI50 (SNB-75) was 32.3 µM (inactive). The GI50 (SNB-78) was > 100 µM (inactive), the GI50 (SR) was 68.5 µM (inactive) and the GI50 (SW-620) was > 100 µM (inactive). For the same compound, the GI50 (TK-10) was > 100 µM (inactive), the GI50 (U-251) was > 100 µM (inactive) and the GI50 (UACC-257) was > 100 µM (inactive). For the same compound, the GI50 (UACC-62) was > 100 µM (inactive) and the GI50 (UO-31) was > 100 µM (inactive).
`Nc1c(-c2ccccc2-c2c(N)[n+]([O-])c3ccccc3[n+]2[O-])[n+]([O-])c2ccccc2[n+]1[O-]` was tested, and the GI50 (786-0) was 12 µM (inactive), the GI50 (A498) was 20.8 µM (inactive) and the GI50 (A549) was 11.4 µM (inactive). For the same compound, the GI50 (ACHN) was 8.32 µM (inactive), the GI50 (CAKI-1) was 33.5 µM (inactive) and the GI50 (CCRF-CEM) was 2.49 µM (inactive). For the same compound, the GI50 (COLO 205) was 4.69 µM (inactive), the GI50 (DLD-1) was 4.63 µM (inactive) and the GI50 (DMS-114) was 3.36 µM (inactive). For the same compound, the GI50 (DMS-273) was 4.66 µM (inactive), the GI50 (EKVX) was 5.37 µM (inactive) and the GI50 (HCC 2998) was 22 µM (inactive). For the same compound, the GI50 (HCT-116) was 6.71 µM (inactive), the GI50 (HCT-15) was 5.28 µM and the GI50 (HL-60) was 3.69 µM (inactive). The GI50 (HOP-18) was 7.71 µM (inactive), the GI50 (HOP-92) was > 100 µM (inactive) and the GI50 (HT-29) was 6.9 µM (inactive). For the same compound, the GI50 (K562) was 5.74 µM (inactive), the GI50 (KM-20L2) was 4.33 µM (inactive) and the GI50 (KM12) was 8.32 µM (inactive). For the same compound, the GI50 (LOX IMVI) was 8.83 µM (inactive), the GI50 (LXFL 529) was 6.19 µM (inactive) and the GI50 (M14) was 12.2 µM (inactive). For the same compound, the GI50 (M19-MEL) was 8.41 µM (inactive), the GI50 (MOLT-4) was 2.1 µM (inactive) and the GI50 (Malme-3M) was 35 µM (inactive). For the same compound, the GI50 (NCI-H226) was 19.5 µM (inactive), the GI50 (NCI-H23) was 15.6 µM (inactive) and the GI50 (NCI-H460) was 2.51 µM (inactive). For the same compound, the GI50 (NCI-H522) was 2.06 µM (inactive), the GI50 (OVCAR-3) was 7.45 µM (inactive) and the GI50 (OVCAR-4) was 4.89 µM (inactive). For the same compound, the GI50 (OVCAR-5) was 64.6 µM (inactive), the GI50 (OVCAR-8) was 3.7 µM (inactive) and the GI50 (RPMI-8226) was 4.73 µM (inactive). For the same compound, the GI50 (RXF 393) was 30.3 µM (inactive), the GI50 (SF-268) was 3.16 µM (inactive) and the GI50 (SF-295) was 12.9 µM (inactive). The GI50 (SF-539) was 17.5 µM (inactive), the GI50 (SK-MEL-28) was 23 µM (inactive) and the GI50 (SK-MEL-2) was 34.8 µM (inactive). For the same compound, the GI50 (SK-MEL-5) was 10.7 µM (inactive), the GI50 (SK-OV-3) was 22.9 µM (inactive) and the GI50 (SN12C) was 6.17 µM (inactive). The GI50 (SNB-19) was 7.91 µM (inactive), the GI50 (SNB-75) was 22.2 µM (inactive) and the GI50 (SNB-78) was 71.8 µM (inactive). For the same compound, the GI50 (SR) was 4.3 µM (inactive), the GI50 (SW-620) was 8.45 µM (inactive) and the GI50 (TK-10) was 33.7 µM (inactive). The GI50 (U-251) was 5.46 µM (inactive), the GI50 (UACC-257) was 7.45 µM (inactive) and the GI50 (UACC-62) was 3.7 µM (inactive). For the same compound, the GI50 (UO-31) was 10 µM (inactive).
